Measured values from paper PMC12070228, “Investigations of Enteric-Coated Tablet Propyl Gallate-Induced Nephrotoxicity in Beagles as well as Human and Dog Renal Proximal Tubule Epithelial Cells” (ACS Pharmacology & Translational Science, 2025).
Read-outs that look alike come from different tables or passages of the source.

Experiments:
[1] = PG pharmacokinetics in healthy volunteers, clinical study NCT03362593 (validated LC-MS/MS); assay type: in vivo; details: human, plasma, oral EC MEDI7219 tablets, PG 200, 400 or 800 mg
Description: (§1) The total run time was 5.5 min.
(§2) The targeted quantitation of PG and phase-I/II metabolites was conducted using peak area ratio of analytes and internal standards in MultiQuant software (SCIEX).
Healthy volunteers participating in the clinical study NCT03362593 received single or multiple ascending doses of MEDI7219 tablets. Healthy volunteers received EC MEDI7219 tablets containing 200, 400, or 800 mg PG per tablet. The clinical plasma samples were analyzed using the validated method described above. […] After oral administration of tablets containing PG, the T max of PG was reached around 3–4 h postdose.

[2] = PG toxicokinetics in dog plasma (LC-MS/MS), studies 001-005; assay type: in vivo; details: beagle, po
Description: Samples were vortexed and centrifuged before injection.
as §1, §2
In the follow-up 4-week study (study 003), dogs received EC tablets consisting of the clinical formulation excipients minus PG, clinical formulation excipients minus NaCDC, or PG alone in a gelatin capsule once daily for 26 days. […] Samples for PG toxicokinetics were collected on days 1 and 22 of the dosing-phase at predose (Day 22 only) and 0.5, 1, 2, 4, 6, 8, 12, and 24 h postdose. […] Plasma samples for the measurement of lipopolysaccharide (LPS) were taken twice in the pretest period, predose and 2 h after dosing on Days 15 and 22, and prior to necropsy. LPS concentrations were measured using a qualified sandwich ELISA method (LSBiosciences) with a detection range of 7.82 to 500 pg/mL.
Table S2. Correlation of PG exposure with nephrotoxicity.
AUC0-24 = area under the concentration versus time curve from time 0 to 24 hours; clin = clinical; F = female; M = male; NR = no result due to insufficient data. […]
a Clinical formulation excipients included sodium chenodeoxycholate (Na CDC), propyl gallate (PG), tris(hydroxymethyl)aminomethane (Tris)(except for Study 005), mannitol, crospovidone, aerosil, sodium stearyl fumarate, eudragit, and plasarcryl. b Study 001: Initial 4-week investigational new drug (IND)-enabling good laboratory practice (GLP) study c Study 002: Investigative 4-week study with different excipient combinations d Study 003: Follow-up investigative 4-week study with non-enteric coated capsule e Study 004: 3-month GLP study f Study 005: 9-month GLP study g Day 7 AUC value is presented; AUC could not be calculated for Day 28 samples due to insufficient data. h Minimal nephropathy observed in 2 recovery (4 weeks) group females, but not in main group animals.

Tmax [1]: 3 to 4 h
Compound: CCCOC(=O)c1cc(O)c(O)c(O)c1 [PG, propyl gallate]
AUC(0-t) ([2]; 12.5 mg/kg/day, PG 12.5, NaCDC 10, MEDI7219 0.75 mg/kg/day, clin excipients, Study 005 Day 112, read-out: Propyl Gallate Exposure (AUC0-24)): 72 ng·h/mL
AUC(0-t) ([2]; 12.5 mg/kg/day, PG 12.5, NaCDC 10, MEDI7219 0.75 mg/kg/day, clin excipients, Study 005 Day 196, read-out: Propyl Gallate Exposure (AUC0-24)): 88 ng·h/mL
AUC(0-t) ([2]; 12.5 mg/kg/day, PG 12.5, NaCDC 10, MEDI7219 0.75 mg/kg/day, clin excipients, Study 005 Day 266, read-out: Propyl Gallate Exposure (AUC0-24)): 90 ng·h/mL
AUC(0-t) ([2]; 14 mg/kg/day, PG 14, NaCDC 7, MEDI7219 0.4 mg/kg/day, clin excipients, Study 004 Day 78, read-out: Propyl Gallate Exposure (AUC0-24)): 101 ng·h/mL
AUC(0-t) ([2]; 200 mg/kg/day, PG 200, NaCDC 0, MEDI7219 0 mg/kg/day, clin excipients minus NaCDC and Tris, Study 002 Day 14, read-out: Propyl Gallate Exposure (AUC0-24)): 1890 ng·h/mL
AUC(0-t) ([2]; 200 mg/kg/day, PG 200, NaCDC 0, MEDI7219 0 mg/kg/day, clin excipients minus NaCDC and Tris, Study 002 Day 21, read-out: Propyl Gallate Exposure (AUC0-24)): 4840 ng·h/mL
AUC(0-t) ([2]; 200 mg/kg/day, PG 200, NaCDC 0, MEDI7219 0 mg/kg/day, clin excipients minus NaCDC, Study 002 Day 14, read-out: Propyl Gallate Exposure (AUC0-24)): 2580 ng·h/mL
AUC(0-t) ([2]; 200 mg/kg/day, PG 200, NaCDC 0, MEDI7219 0 mg/kg/day, clin excipients minus NaCDC, Study 002 Day 21, read-out: Propyl Gallate Exposure (AUC0-24)): 1850 ng·h/mL
AUC(0-t) ([2]; 200 mg/kg/day, PG 200, NaCDC 0, MEDI7219 0 mg/kg/day, clin excipients minus NaCDC, Study 003 Day 22, read-out: Propyl Gallate Exposure (AUC0-24)): 6290 ng·h/mL
AUC(0-t) ([2]; 200 mg/kg/day, PG 200, NaCDC 0, MEDI7219 0 mg/kg/day, gelatin capsule (PG only), Study 003 Day 22, read-out: Propyl Gallate Exposure (AUC0-24)): 1980 ng·h/mL
AUC(0-t) ([2]; 200 mg/kg/day, PG 200, NaCDC 100, MEDI7219 0 mg/kg/day, clin excipients minus Tris, Study 002 Day 14, read-out: Propyl Gallate Exposure (AUC0-24)): 2760 ng·h/mL
AUC(0-t) ([2]; 200 mg/kg/day, PG 200, NaCDC 100, MEDI7219 0 mg/kg/day, clin excipients minus Tris, Study 002 Day 21, read-out: Propyl Gallate Exposure (AUC0-24)): 1800 ng·h/mL
AUC(0-t) ([2]; 200 mg/kg/day, PG 200, NaCDC 100, MEDI7219 0 mg/kg/day, clin excipients, Study 002 Day 14, read-out: Propyl Gallate Exposure (AUC0-24)): 3250 ng·h/mL
AUC(0-t) ([2]; 200 mg/kg/day, PG 200, NaCDC 100, MEDI7219 2 mg/kg/day, clin excipients, Study 001 Day 28, read-out: Propyl Gallate Exposure (AUC0-24)): 1210 ng·h/mL
AUC(0-t) ([2]; PG 25, NaCDC 20, MEDI7219 0.25 mg/kg/day, clin excipients, Study 005 Day 112, read-out: Propyl Gallate Exposure (AUC0-24)): 135 ng·h/mL
AUC(0-t) ([2]; PG 25, NaCDC 20, MEDI7219 0.25 mg/kg/day, clin excipients, Study 005 Day 196, read-out: Propyl Gallate Exposure (AUC0-24)): 232 ng·h/mL
AUC(0-t) ([2]; PG 36, NaCDC 18, MEDI7219 1.1 mg/kg/day, clin excipients, Study 004 Day 78, read-out: Propyl Gallate Exposure (AUC0-24)): 282 ng·h/mL
AUC(0-t) ([2]; PG 44, NaCDC 22, MEDI7219 0 mg/kg/day, clin excipients, Study 005 Day 196, read-out: Propyl Gallate Exposure (AUC0-24)): 864 ng·h/mL
AUC(0-t) ([2]; PG 44, NaCDC 35, MEDI7219 2.6 mg/kg/day, clin excipients, Study 005 Day 196, read-out: Propyl Gallate Exposure (AUC0-24)): 1870 ng·h/mL
AUC(0-t) ([2]; PG 60, NaCDC 48, MEDI7219 0 mg/kg/day, clin excipients, Study 005 Day 112, read-out: Propyl Gallate Exposure (AUC0-24)): 3610 ng·h/mL
AUC(0-t) ([2]; PG 60, NaCDC 48, MEDI7219 3.6 mg/kg/day, clin excipients, Study 005 Day 112, read-out: Propyl Gallate Exposure (AUC0-24)): 829 ng·h/mL
AUC(0-t) ([2]; PG 76, NaCDC 38, MEDI7219 0.75 mg/kg/day, clin excipients, Study 001 Day 28, read-out: Propyl Gallate Exposure (AUC0-24)): 618 ng·h/mL
AUC(0-t) ([2]; PG 100, NaCDC 50, MEDI7219 0 mg/kg/day, clin excipients, Study 004 Day 78, read-out: Propyl Gallate Exposure (AUC0-24)): 1830 ng·h/mL
AUC(0-t) ([2]; PG 100, NaCDC 50, MEDI7219 3 mg/kg/day, clin excipients, Study 004 Day 78, read-out: Propyl Gallate Exposure (AUC0-24)): 767 ng·h/mL
AUC(0-t) ([2]; PG 200, NaCDC 100, MEDI7219 0 mg/kg/day, clin excipients, Study 001, Day 28 column but Day 7 AUC value is presented (footnote g), read-out: Propyl Gallate Exposure (AUC0-24)): 2560 ng·h/mL
AUC(0-t) ([2]; female, 25 mg/kg/day, female (F), PG 25, NaCDC 20, MEDI7219 0.25 mg/kg/day, clin excipients, Study 005 Day 266, read-out: Propyl Gallate Exposure (AUC0-24)): 986 ng·h/mL
AUC(0-t) ([2]; male, 25 mg/kg/day, male (M), PG 25, NaCDC 20, MEDI7219 0.25 mg/kg/day, clin excipients, Study 005 Day 266, read-out: Propyl Gallate Exposure (AUC0-24)): 158 ng·h/mL
